Measured values as given in patent US20030162803A1, “Anhydrovinblastine for the treatment of cancer” (priority 1997, published 2003).
Where a name gives a salt, the structure may show the parent alone. Read-outs that look alike come from different tables or passages of the source.

How the values were obtained:
[1] = system: MCF7 human breast carcinoma; assay: MTT cytotoxicity assay, MCF7; format: cell-based; conditions: read-out: Drug Ic50
Protocol: (§1) Cytotoxicity experiments on AHVB were performed as direct comparisons with vincristine and Navelbine™ in order to assess its inherent antineoplastic profile against a variety of tumor cell types relative to other relevant vinca alkaloids. The cytotoxicity of AHVB was investigated in vitro against a panel of tumor cell lines of varying lineage in order to determine the specificity of its antitumor activity with respect to cell type.
(§2) Standard dose response cytotoxicity assays (R. Mosmass, J. Immunol. Meth., 65:55-64, 1983) were utilized to determine the IC50 (drug concentration required to induce 50% inhibition of tumor cell growth) for vincristine, Navelbine™ and AHVB. The indicated cell lines were obtained from either the ATCC or NCI tumor repository and were cultured in tissue culture media by standard techniques well known to those skilled in the art, prior to dilution to a defined cell concentration required for the studies in 96 well plates.
(§3) A wide range of drug concentrations were exposed to tumor cells growing at log phase in 96-well microtitre plates. Cell concentrations depended on the cell line as well as the length of time to be cultured. […] MCF7 cells were plated at a concentration of 7,000 and 1,500 cells per well for studies lasting 3 and 7 days, respectively. H460 cells were plated at a concentration of 2,500 and 1,000 cells per well for studies lasting 3 and 7 days, respectively. K562 cells were plated at a concentration of 1,500 and 10,000 cells per well for studies lasting 1 and 3 days, respectively. LS180 cells were plated at a concentration of 5,000 and 20,00 cells per well for studies lasting 3 and 7 days, respectively.
(§4) Subsequently the plates were incubated for the indicated time period. At specified times, cells were washed and subsequently exposed to the dye inclusion marker MTT (3-(4,5-dimethylthiazol-2-yl)-2,5-diphenyl tetrazolium), which accumulated into viable cells. MTT was added to the cells at a final concentration of 50 μg per well. After a 4 hour incubation, the cells were washed free of media and unreacted MTT, prior to addition of DMSO which was required to solubilize the insoluble formazan precipitate that formed in viable cells. After the sample was mixed through repeated pipetting, the coloured product was measured using a plate reader operating at 570 nm. The absorbance values obtained for cells cultured in the absence of drug was assumed to represent 100% viability.

[2] = system: H460 human non-small cell lung carcinoma; assay: MTT cytotoxicity assay, H460; format: cell-based; conditions: read-out: Drug Ic50
Protocol: as §1, §2, §3, §4

[3] = system: K562 human erythroleukaemia; assay: MTT cytotoxicity assay, K562; format: cell-based; conditions: read-out: Drug Ic50
Protocol: as §1, §2, §3, §4

[4] = system: LS180 human colon carcinoma; assay: MTT cytotoxicity assay, LS180; format: cell-based; conditions: read-out: Drug Ic50
Protocol: as §1, §2, §3, §4

[5] = Range-finding acute (14 day) single dose toxicity in healthy male Nb rats; format: in vivo; conditions: single intraperitoneal injection; for subacutely toxic dosage (highest dose which allowed survival of all animals in a group): 14 day
Protocol: Range-finding acute (14 day), single dose toxicity studies were performed in healthy male Nb rats in order to determine the maximum tolerated dose of vincristine sulfate, Navelbine T and AHVB when administered as a single, intraperitoneal injection in these rodents (see Table 2).
To this end, healthy non-tumor bearing male Nb rats (weight range 333-399 grams) were divided in groups of 3 animals. Each group was used to test one drug at one dosage. The volumes within which the drugs were administered depended on the concentration of the drug solution (in saline) and the weight of the animals, and ranged from 0.1-1.0 ml. Saline was used as a control. The highest dose of each drug which allowed survival of all animals in a group (3 out of 3) was taken as the subacutely toxic dosage for the drug, i.e. 0.7 mg/kg for vincristine, 2.0 mg/kg for Navelbine™ and 3.0 mg/kg for AHVB.
The health of the animals was assessed by daily weight measurements in addition to behavioural indications of stress. Animals continued to be monitored throughout the complete 14 day study period. Animals were euthanized in the event of signs of severe stress or weight loss in excess of 20%. All animals were necropsied at the end of the study period or at the time of premature euthanasia.

[6] = system: Nb2-U17 lymphoma transplants; assay: Rat U17 lymphoma model (Nb2-U17 tumor transplants); format: in vivo, Nb rats; conditions: for anti-tumor potency compared: 50% of individual maximum tolerated doses, FIG. 3
Text: The U17 cell line was originally derived from a transplantable malignant lymphoma that arose spontaneously in male Noble rats (British Columbia Cancer Research Centre Joint Animal Breeding Facility with parents obtained from the National Institutes of Health, Bethesda, Md.). The cell line is prolactin dependent and can readily be cultured in vitro. U17 derived solid tumors are generated by subcutaneous injection (via the trocar method) of a small (2 mm^2) piece of tumor tissue obtained from male Noble rat. Tumor tissue used for the implants arose two weeks after injection of 5×10^6 U17 cells (from culture) subcutaneously in the nape of the neck. For assessing the anti-tumor activity of AHVB, tumor bearing animals (2-4 gm tumors) were given a single treatment of drug and tumor size was measured as a function of time following treatment. The anti-tumor activity was assessed at a series of different doses in order to determine the maximum therapeutic dose of AHVB. Comparative studies between vincristine, vinblastine and AHVB were performed. For these studies anti-tumor activity was determined at the maximum therapeutic dose of each drug.
Cultures of the non-metastatic, pre-T Nb2 lymphoma line originally developed at The University of British Columbia and designated Nb2-U17 (Anticancer Research 14:2485-2492, 1994), and are available from the British Columbia Cancer Research Centre. Cells from exponentially growing Nb2-U17 suspension cultures were injected subcutaneously into methoxyflurane-anaesthetised, mature male Nb rats (5 rats; 310-380 grams; 5×10^6 cells/rat in 1 ml of culture medium) at the nape of the neck using a 1.5″ 20-gauge needle. […]
The oncolytic effects of each of the three drugs were assessed at a subacutely toxic dose, determined for each drug in preliminary studies using non-tumor-bearing, mature male Nb rats, i.e. 3.0, 2.0 and 0.7 mg/kg for AHVB, Navelbine™ and vincristine, respectively as illustrated in FIG. 2. In addition, each drug was assessed at 50% and 25% of its subacutely toxic dose. […]

[7] = system: P388 lymphocytic leukaemia; assay: MTT cytotoxicity assay, P388; conditions: for IC50: read-out: Drug Ic50
Protocol: Standard dose response cytotoxicity assays (R. Mosmass, J. Immunol. Meth., 65:55-64, 1983) were utilized to determine the IC50 (drug concentration required to induce 50% inhibition of tumor cell growth) for vincristine, Navelbine™ and AHVB.
A wide range of drug concentrations were exposed to tumor cells growing at log phase in 96-well microtitre plates. Cell concentrations depended on the cell line as well as the length of time to be cultured. Typically, P388 cells were plated at a concentration of 30,000, 2,000 and 750 cells per well for studies lasting 1, 3 and 7 days, respectively. MCF7 cells were plated at a concentration of 7,000 and 1,500 cells per well for studies lasting 3 and 7 days, respectively. H460 cells were plated at a concentration of 2,500 and 1,000 cells per well for studies lasting 3 and 7 days, respectively. K562 cells were plated at a concentration of 1,500 and 10,000 cells per well for studies lasting 1 and 3 days, respectively. LS180 cells were plated at a concentration of 5,000 and 20,00 cells per well for studies lasting 3 and 7 days, respectively. After plating all cell lines were incubated (CO2 incubator at 37° C., 5% CO2) for 24 hours prior to addition of the cytotoxic agent (See Table 1).
as §4
A cytotoxicity curve was generated to estimate the IC50 of vincristine, Navelbine™ and AHVB in the murine P388 cell line (see FIG. 5). In this study, P388 cells derived from an ascitic tumor grown in BDF1 were first separated from red cells employing Ficoll-Paque. Isolated white cells were washed twice then placed in serum containing tissue culture media (1×10^5 cells per ml of RPMI 1640 supplemented with L-glutamine, penicillin, streptomycin and 10% fetal bovine serum) and cultured for 2 hours. All non-adherent cells were collected and that cell population was defined as P388 cells and used for cytotoxicity assays 24 hours later.

[8] = Homo sapiens, 72 h, MCF7, exposure time 3 days
[9] = Homo sapiens, 168 h, MCF7, exposure time 7 days
[10] = Homo sapiens, NCI-H460, 72 h, H460, exposure time 3 days
[11] = Homo sapiens, NCI-H460, 168 h, H460, exposure time 7 days
[12] = Homo sapiens, 24 h, K562, exposure time 1 day
[13] = Homo sapiens, 72 h, K562, exposure time 3 days
[14] = Homo sapiens, 72 h, LS180, exposure time 3 days
[15] = Homo sapiens, 168 h, LS180, exposure time 7 days

SMILES: CCC1=C[C@H]2CN(CCc3c([nH]c4ccccc34)[C@@](C(=O)OC)(c3cc4c(cc3OC)N(C)[C@H]3[C@@](O)(C(=O)OC)[C@H](OC(C)=O)[C@]5(CC)C=CCN6CC[C@]43[C@@H]65)C2)C1 [AHVB, 3′,4′-anhydrovinblastine]
- IC50 ([1]; MCF7, exposure time 3 days): > 2500 nM
- IC50 ([1]; MCF7, exposure time 7 days): 31.3 ± 12.4 nM
- IC50 ([2]; H460, exposure time 3 days): 10 nM
- IC50 ([2]; H460, exposure time 7 days): 5 nM
- IC50 ([3]; K562, exposure time 1 day): > 50 nM
- IC50 ([3]; K562, exposure time 3 days): 18.8 ± 8.8 nM
- IC50 ([4]; LS180, exposure time 3 days): > 50 nM
- IC50 ([4]; LS180, exposure time 7 days): 17.5 nM
- Mortality (surviving rats/injected rats) ([5]; 4.4 mg/kg): 0 surviving rats/injected rats
- Mortality (surviving rats/injected rats) ([5]; 10 mg/kg): 0 surviving rats/injected rats
- subacutely toxic dosage (highest dose which allowed survival of all animals in a group) [5]: 3.0 mg/kg
- anti-tumor potency compared [6]: less potent than vincristine
- fold less active on per molar basis than vincristine and Navelbine ([7]; in vitro tests, Table I and FIG. 5): 10 to 15 fold
- IC50 ([7]; P388, exposure time 1 day): 140 ± 53 nM
- IC50 ([7]; P388, exposure time 3 days): 15 ± 8.7 nM
- IC50 ([7]; P388, exposure time 7 days): 20 nM

SMILES: CCC1=C[C@@H]2CN(C1)Cc1c([nH]c3ccccc13)[C@@](C(=O)OC)(c1cc3c(cc1OC)N(C)[C@H]1[C@@](O)(C(=O)OC)[C@H](OC(C)=O)[C@]4(CC)C=CCN5CC[C@]31[C@@H]54)C2 [Navelbine, 3′,4′-didehydro-4′-deoxy-C′-norvincaleukoblastine-di-L-tartrate]
- IC50 [1, 8]: > 2500 nM
- IC50 [1, 9]: 2.6 ± 1.6 nM
- IC50 [2, 10]: 0.3 nM
- IC50 [2, 11]: > 0.5 nM
- IC50 [3, 12]: > 50 nM
- IC50 [3, 13]: 2.5 ± 2.2 nM
- IC50 [4, 14]: > 50 nM
- IC50 [4, 15]: 0.5 nM
- Mortality (surviving rats/injected rats) ([5]; 5 mg/kg): 0 surviving rats/injected rats
- Mortality (surviving rats/injected rats) ([5]; 10 mg/kg): 0 surviving rats/injected rats
- subacutely toxic dosage (highest dose which allowed survival of all animals in a group) [5]: 2.0 mg/kg
- anti-tumor potency compared [6]: less potent than AHVB
- IC50 ([7]; Mus musculus, P388, 24 h): 20 nM
- IC50 ([7]; Mus musculus, P388, 72 h): 0.7 ± 0.3 nM
- IC50 ([7]; Mus musculus, P388, 168 h): 2.5 nM

SMILES: CC[C@]1(O)C[C@H]2CN(CCc3c([nH]c4ccccc34)[C@@](C(=O)OC)(c3cc4c(cc3OC)N(C=O)[C@H]3[C@@](O)(C(=O)OC)[C@H](OC(C)=O)[C@]5(CC)C=CCN6CC[C@]43[C@@H]65)C2)C1 [Vincristine, Sulfate of 22-oxovincaleukoblastine]
- IC50 [1, 8]: > 2500 nM
- IC50 [1, 9]: 2.6 ± 1.6 nM
- IC50 [2, 10]: 3.5 nM
- IC50 [2, 11]: 2.5 nM
- IC50 [3, 12]: > 50 nM
- IC50 [3, 13]: 1.5 ± 0.4 nM
- IC50 [4, 14]: > 50 nM
- IC50 [4, 15]: 1.5 nM
- Mortality (surviving rats/injected rats) ([5]; 1 mg/kg): 0 surviving rats/injected rats
- subacutely toxic dosage (highest dose which allowed survival of all animals in a group) [5]: 0.7 mg/kg
- recurrence of tumors ([6]; single intraperitoneal subacutely toxic dose, FIG. 2): not observed
- IC50 ([7]; Mus musculus, P388, 24 h): 11 ± 3.6 nM
- IC50 ([7]; Mus musculus, P388, 72 h): 1 ± 0.3 nM
- IC50 ([7]; Mus musculus, P388, 168 h): 2 nM
